In PMC11754779, “Mechanism of sensor kinase CitA transmembrane signaling” (Nature Communications, 2025):

Tests used:
[1] = target: T1, CitApc (C12A/R93A CitA1-309) (Geobacillus thermodenitrificans, UniProt A4IPE6, C12A/R93A/N308C); assay: […] CODEX with DNP, inter-dimer distance change; format: binding; conditions: CH2COCF3-tagged at N308C; liposomes; 90 K
T1 construct: gene GTNG_1840; residues 1-309 (PASp, TM helices, PASc; no kinase core); E. coli C43(DE3), Ni-NTA purified; reconstituted in DMPC/DMPA liposomes; dimer

Gt CitA PASp domain (WT) = target: T2, Gt CitA PASp domain (WT) (Geobacillus thermodenitrificans, UniProt A4IPE6); assay: X-ray crystallography, molecular replacement; format: binding; conditions: 1 mM sodium citrate added; crystallised from 1 M tri-sodium citrate, 0.1 M imidazole pH 9.0
T2 construct: gene GTNG_1840; periplasmic (extracytoplasmic) PAS/PDC sensor domain; E. coli BL21(DE3); N-terminal His-tag removed with TEV protease

full length Gt CitA = target: T3, full length Gt CitA (Geobacillus thermodenitrificans, UniProt A4IPE6, C12A/R93A/N308C, form not given); assay: […] NMR ATP hydrolysis assay in DMPC liposomes; format: biochemical; conditions: 5 mM sodium citrate; 6 mM ATP, 10 mM MgCl2, pH 6.5, 37 C; untagged and CH2COCF3-tagged at N308C; activator
T3 construct: gene GTNG_1840; full length; vector pET16b, Ni-NTA purified, reconstituted in DMPC liposomes (C12A/R93A/N308C); pMW1652 in E. coli IMW549 for reporter assay

[2] = target: T4, CitApc (C12A/R93A CitA1-309) (Geobacillus thermodenitrificans, UniProt A4IPE6, C12A/R93A); assay: 1H-detected MAS solid-state NMR chemical shifts; format: binding; conditions: 5 mM sodium citrate, 20 mM sodium phosphate pH 6.5; DMPC/DMPA liposomes; 293 K
T4 construct: gene GTNG_1840; residues 1-309 (PASp, TM helices, PASc; no kinase core); E. coli C43(DE3), Ni-NTA purified; reconstituted in DMPC/DMPA liposomes; dimer

[3] = target: N288D mutant of the cytosolic PAS domain (PASc) of Geobacillus thermodenitrificans CitA (Geobacillus thermodenitrificans); assay: SEC; size exclusion column, down to a concentration of 1 μM (Supplementary Fig. 8)
[4] = target: wild-type cytosolic PAS domain (PASc) of Geobacillus thermodenitrificans CitA (Geobacillus thermodenitrificans); assay: as above

T2 sequence (A4IPE6 entry or part of it): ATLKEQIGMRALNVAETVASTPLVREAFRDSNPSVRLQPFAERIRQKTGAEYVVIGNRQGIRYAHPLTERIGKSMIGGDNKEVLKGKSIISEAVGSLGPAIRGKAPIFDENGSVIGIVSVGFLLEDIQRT
T4 sequence (A4IPE6 entry or part of it C12A/R93A): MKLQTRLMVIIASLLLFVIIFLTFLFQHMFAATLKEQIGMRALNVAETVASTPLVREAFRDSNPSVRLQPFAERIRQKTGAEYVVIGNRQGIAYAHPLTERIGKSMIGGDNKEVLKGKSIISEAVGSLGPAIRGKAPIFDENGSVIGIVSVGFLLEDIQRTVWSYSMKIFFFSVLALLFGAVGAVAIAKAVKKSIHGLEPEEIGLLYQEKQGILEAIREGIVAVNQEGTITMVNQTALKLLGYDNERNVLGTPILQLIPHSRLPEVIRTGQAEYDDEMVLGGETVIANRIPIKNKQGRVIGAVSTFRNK
T3 sequence (A4IPE6 entry or part of it C12A/R93A/N308C, form open): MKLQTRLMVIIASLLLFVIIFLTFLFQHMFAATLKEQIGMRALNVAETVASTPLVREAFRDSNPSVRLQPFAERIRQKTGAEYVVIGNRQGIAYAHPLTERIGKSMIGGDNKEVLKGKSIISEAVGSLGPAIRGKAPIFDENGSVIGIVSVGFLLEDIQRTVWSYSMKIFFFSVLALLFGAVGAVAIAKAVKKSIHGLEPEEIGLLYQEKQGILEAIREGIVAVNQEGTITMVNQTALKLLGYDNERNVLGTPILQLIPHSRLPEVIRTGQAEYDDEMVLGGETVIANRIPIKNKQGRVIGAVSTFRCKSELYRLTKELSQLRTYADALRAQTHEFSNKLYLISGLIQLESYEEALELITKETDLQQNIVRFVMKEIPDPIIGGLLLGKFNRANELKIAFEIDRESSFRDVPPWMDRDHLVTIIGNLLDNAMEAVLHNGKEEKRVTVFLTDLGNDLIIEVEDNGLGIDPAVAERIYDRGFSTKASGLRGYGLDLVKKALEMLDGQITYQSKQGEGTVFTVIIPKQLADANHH
T1 sequence (A4IPE6 entry or part of it C12A/R93A/N308C): as the sequence (A4IPE6 entry or part of it C12A/R93A) above, with N308C counted along it

## O=C(O)CC(O)(CC(=O)O)C(=O)O [citrate]
[1]
  19F CODEX with DNP, inter-dimer distance change: A decay in the CODEX signal to half of the reference signal was observed when citrate was bound
Gt CitA PASp domain (WT)
  X-ray crystallography, molecular replacement: Superposition of the citrate-bound Gt PASp domain structure (PDB: 8BGB
Full length Gt CitA
  31P NMR ATP hydrolysis assay in DMPC liposomes: Upon citrate binding, a threefold increase in CitA’s ATP hydrolysis rate was observed
[2]
  1H-detected MAS solid-state NMR chemical shifts: also indicate changes in secondary structure upon addition of citrate

## N288D mutant of the cytosolic PAS domain (PASc) of Geobacillus thermodenitrificans CitA (domain or fragment)
[3]
  stoichiometry N: 2

## wild-type cytosolic PAS domain (PASc) of Geobacillus thermodenitrificans CitA (domain or fragment)
[4]
  stoichiometry N: 2
